Data reported in patent publication US20250250303A1 (THE TRUSTEES OF COLUMBIA UNIVERSITY IN THE CITY OF NEW YORK, priority 2022, published 2025).
Bridge positions count the residues as written; N and C are the ends. Peptide text beside a SMILES is read from it.

Legend:
Type in all cases: cell-based
T47D = assay: IR signaling in cancer cells, T47D; conditions: 10, 100 or 300 nM for 10 minutes
IR F64A = target: T1, IR F64A (Homo sapiens, UniProt P06213, F91A); assay: IR activation assay in 293 FT cells, IR F64A mutant; conditions: 10 nM for 10 min
T1 construct: expressed in transfected cells; host or cells: 293 FT cells

IR signaling = IR signaling in primary mouse hepatocytes
Procedure: Primary hepatocytes were isolated from 2-month-old male mice with a standard two-step collagenase perfusion procedure as described earlier with some modifications. […] After 1-2 sec upon appearance of white spots in the liver, the portal vein was cut with scissors to wash out blood, and then the liver was perfused with 30 ml of Liver Digest Medium (Thermo Scientific, Cat. #17703034). Dissected liver was gently washed with low glucose DMEM and transferred to sterile culture dish containing 15 ml Liver Digest Medium. The isolated liver cells were filtered through the 70 μm cell strainer into a 50 ml tube. After centrifuge at 50 g for 5 min at 4° C., cells were washed with cold low glucose DMEM three times. […] After 2 hr., the medium was changed to serum free low-glucose DMEM.
The cells were incubated with the lysis buffer B [50 mM Hepes pH 7.4, 150 mM NaCl, 10% Glycerol, 1% Triton X-100, 1 mM EDTA, 100 mM sodium fluoride, 2 mM sodium orthovanadate, 20 mM sodium pyrophosphate, 0.5 mM dithiothreitol (DTT), 2 mM phenylmethylsulfonyl fluoride (PMSF)] supplemented with complete Protease Inhibitor Cocktail (Roche), PhosSTOP (Sigma), and 25 U/ml turbo nuclease (Accelagen) on ice for 1 hr. After centrifuge at 20,817 g at 4° C. for 10 min, the concentrations of cell lysate were measured using Micro BCA Protein Assay Kit (Thermo Scientific). About 50-60 μg total proteins were analyzed by SDS-PAGE and quantitative Western blotting. The following antibodies were purchased from commercial sources: Anti-IR-pY1150/1151 (WB, 1:1000; 19H6; labeled as pY IR, Cat. #3024), anti-AKT (WB, 1:1000; 40D4, Cat. #2920), anti-pS473 AKT (WB, 1:1000; D9E, Cat. #4060), anti-ERK1/2 (WB, 1:1000; L34F12, Cat. #4696), anti-pERK1/2 (WB, […]; 197G2, Cat. #4377), anti-IRS1-pS616 (WB, 1:1000; C15H5, Cell Signaling, Cat. #3203); anti-IRS1 (WB, 1:1000; A301-158A, Bethyl Laboratory); anti-IR (WB, 1:500, CT-3, Santa Cruz; labeled as IR for primary hepatocytes and MEFs, Cat. #sc-57342); anti-IR (WB, 1:1000; EPR23566-103; labeled as IR for FIG. 31, ab278100, Abcam); anti-Myc (WB, 1:2000; 9E10, Cat. #11667149001, Roche; labeled as IR for 293 FT cells). For quantitative western blots, anti-rabbit immunoglobulin G (IgG) (H+L) (WB, 1:5000; Dylight 800 conjugates, Cat. #5151) and anti-mouse IgG (H+L) (WB, 1:5000; Dylight 680 conjugates, Cat. #5470) (Cell Signaling) were used as secondary antibodies. The membranes were scanned with the Odyssey Infrared Imaging System (Li—COR, Lincoln, NE).

IR R345A = target: T2, IR R345A (Homo sapiens, UniProt P06213, R372A); assay: IR activation assay in 293 FT cells, IR R345A mutant; conditions: 10 nM for 10 min
T2 construct: expressed in transfected cells; host or cells: 293 FT cells
T2 sequence (P06213 28-1370 isoform P06213-2 R372A limits assumed): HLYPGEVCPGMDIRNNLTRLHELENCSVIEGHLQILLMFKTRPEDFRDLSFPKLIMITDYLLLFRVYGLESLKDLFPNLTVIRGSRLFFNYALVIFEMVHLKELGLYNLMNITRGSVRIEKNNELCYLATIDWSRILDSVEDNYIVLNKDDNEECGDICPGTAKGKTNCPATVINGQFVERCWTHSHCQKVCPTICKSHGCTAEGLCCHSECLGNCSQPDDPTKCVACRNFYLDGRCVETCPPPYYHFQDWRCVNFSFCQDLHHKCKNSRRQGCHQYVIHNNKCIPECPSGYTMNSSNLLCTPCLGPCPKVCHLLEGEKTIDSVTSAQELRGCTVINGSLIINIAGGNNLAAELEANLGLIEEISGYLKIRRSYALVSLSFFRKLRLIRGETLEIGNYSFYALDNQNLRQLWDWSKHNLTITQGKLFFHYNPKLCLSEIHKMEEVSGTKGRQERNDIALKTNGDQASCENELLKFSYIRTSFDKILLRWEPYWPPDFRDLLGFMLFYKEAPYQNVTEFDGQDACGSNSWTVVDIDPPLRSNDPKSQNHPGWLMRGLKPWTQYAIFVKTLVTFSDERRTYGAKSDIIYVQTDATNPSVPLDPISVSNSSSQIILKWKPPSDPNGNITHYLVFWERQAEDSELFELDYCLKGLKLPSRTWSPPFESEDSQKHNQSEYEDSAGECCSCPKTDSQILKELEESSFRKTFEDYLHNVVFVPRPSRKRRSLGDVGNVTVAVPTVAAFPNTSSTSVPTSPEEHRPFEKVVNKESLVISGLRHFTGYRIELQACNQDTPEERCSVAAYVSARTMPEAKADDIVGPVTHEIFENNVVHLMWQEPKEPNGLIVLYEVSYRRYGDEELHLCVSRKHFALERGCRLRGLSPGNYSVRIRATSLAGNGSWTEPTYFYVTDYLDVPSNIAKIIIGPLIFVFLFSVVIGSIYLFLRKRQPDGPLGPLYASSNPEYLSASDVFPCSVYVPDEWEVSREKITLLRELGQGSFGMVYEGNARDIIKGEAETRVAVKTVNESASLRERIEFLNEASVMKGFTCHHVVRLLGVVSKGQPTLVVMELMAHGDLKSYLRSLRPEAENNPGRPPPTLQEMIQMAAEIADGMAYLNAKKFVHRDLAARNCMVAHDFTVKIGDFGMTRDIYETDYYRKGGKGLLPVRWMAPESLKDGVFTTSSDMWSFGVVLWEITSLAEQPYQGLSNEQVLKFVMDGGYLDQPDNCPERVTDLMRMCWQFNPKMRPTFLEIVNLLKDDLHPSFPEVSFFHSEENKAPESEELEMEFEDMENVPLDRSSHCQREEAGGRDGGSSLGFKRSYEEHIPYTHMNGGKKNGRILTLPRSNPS
T2 sequence (P06213 763-1382 partner limits assumed): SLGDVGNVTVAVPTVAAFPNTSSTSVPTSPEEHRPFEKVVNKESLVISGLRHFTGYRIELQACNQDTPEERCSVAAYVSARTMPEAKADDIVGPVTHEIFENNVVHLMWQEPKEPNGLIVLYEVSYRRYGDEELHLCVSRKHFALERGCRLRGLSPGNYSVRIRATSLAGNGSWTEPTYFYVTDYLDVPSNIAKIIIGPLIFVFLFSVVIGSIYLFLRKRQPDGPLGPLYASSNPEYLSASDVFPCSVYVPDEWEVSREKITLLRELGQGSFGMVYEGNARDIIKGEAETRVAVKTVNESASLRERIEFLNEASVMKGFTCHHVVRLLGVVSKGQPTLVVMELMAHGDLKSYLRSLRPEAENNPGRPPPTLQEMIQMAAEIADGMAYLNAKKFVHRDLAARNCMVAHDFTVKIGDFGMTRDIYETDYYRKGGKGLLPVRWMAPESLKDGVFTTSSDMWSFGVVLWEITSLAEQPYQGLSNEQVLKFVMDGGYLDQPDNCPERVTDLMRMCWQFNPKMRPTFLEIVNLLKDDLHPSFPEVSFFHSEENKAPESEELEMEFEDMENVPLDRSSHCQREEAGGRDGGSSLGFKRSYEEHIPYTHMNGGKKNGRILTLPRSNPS

T1 sequence (P06213 28-1370 isoform P06213-2 F91A limits assumed): as the sequence (P06213 28-1370 isoform P06213-2 R372A limits assumed) above, with F64A, A345R counted along it
T1 sequence (P06213 763-1382 partner limits assumed): as the sequence (P06213 763-1382 partner limits assumed) above

`CC[C@H](C)[C@H](NC(=O)[C@H](CCC(N)=O)NC(=O)[C@H](C)NC(=O)[C@H](Cc1c[nH]c2ccccc12)NC(=O)[C@H](CCC(=O)O)NC(=O)[C@H](CCC(=O)O)NC(=O)[C@H](CCC(=O)O)NC(=O)[C@H](CC(C)C)NC(=O)[C@H](CO)NC(C)=O)C(=O)N[C@@H](CCC(=O)O)C(=O)N[C@H]1CSSC[C@@H](C(=O)N2CCC[C@H]2C(=O)N[C@@H](CO)C(=O)N[C@@H](CCC(=O)O)C(=O)N[C@@H](CO)C(=O)N[C@@H](Cc2ccccc2)C(=O)N[C@@H](Cc2ccc(O)cc2)C(=O)N[C@@H](CC(=O)O)C(=O)N[C@@H](Cc2c[nH]c3ccccc23)C(=O)N[C@@H](Cc2ccccc2)C(=O)N[C@@H](CCC(=O)O)C(=O)N[C@@H](CCCNC(=N)N)C(=O)N[C@@H](CCC(N)=O)C(=O)N[C@@H](CC(C)C)C(N)=O)NC(=O)CNC(=O)[C@H](CCCNC(=N)N)NC(=O)CNC(=O)[C@H](Cc2ccc(O)cc2)NC(=O)[C@H](C(C)C)NC(=O)[C@H](CCC(=O)O)NC1=O` [S597] (Ac-SLEEEWAQIECEVYGRGCPSESFYDWFERQL-NH2; disulfide 11-18) was tested, and the IR signaling (T47D) was “failed to activate”, the “IR activation (pY IR)” value (IR F64A) was “could still be activated” and the pAKT (IR signaling) was “increased”. The pERK (IR signaling) was “increased”, the “pY IR” value (IR signaling) was “increased” and the “IR activation (pY IR)” value (IR R345A) was “fully activated”.
